This is an account of results in patent publication US8802678B2, “Carbonylated (aza) cyclohexanes as dopamine D3 receptor ligands” (Bioprojet, priority 2006, dated 2014).

`N#CCC(=O)N[C@H]1CC[C@H](CCN2CCN(c3cc(C(F)(F)F)ccc3Cl)CC2)CC1` [Example 189, N-(4-{2-[4-(2-Chloro-5-trifluoromethylphenyl)piperazin-1-yl]ethyl}cyclohexyl)-2-cyanoacetamide] returned a melting point of 203 to 204 °C. For `Cc1ccc(Cl)cc1N1CCN(CC[C@H]2CC[C@H](NC(=O)CCC(N)=O)CC2)CC1` [Example 190, N-(4-{2-[4-(5-Chloro-2-methylphenyl)piperazin-1-yl]ethyl}cyclohexyl)succinamide], the melting point fell in the range of 237 to 240 °C. The molecule `CC(=O)CCC(=O)N[C@H]1CC[C@H](CCN2CCN(c3cccc(C(F)(F)F)c3)CC2)CC1` [Example 191, 4-Oxo-pentanoic acid (4-{2-[4-(3-trifluoromethylphenyl)piperazin-1-yl]ethyl}cyclohexyl)amide] had a melting point of 159 °C. For `Cc1ccc(F)c(N2CCN(CC[C@H]3CC[C@H](NC(=O)CC#N)CC3)CC2)c1` [Example 192, 2-Cyano-N-(4-{2-[4-(2-fluoro-5-methylphenyl)piperazin-1-yl]ethyl}cyclohexyl)acetamide], the melting point is 178 °C. Molecule `COc1ccc(Cl)c(N2CCN(CC[C@H]3CC[C@H](NC(=O)CC#N)CC3)CC2)c1` [Example 193, N-(4-{2-[4-(2-Chloro-5-methoxyphenyl)piperazin-1-yl]ethyl}cyclohexyl)-2-cyanoacetamide] yielded a melting point of 165 °C. On to `CSc1ccccc1N1CCN(CC[C@H]2CC[C@H](NC(=O)CC#N)CC2)CC1` [Example 194, 2-Cyano-N-(4-{2-[4-(2-methylsulfanylphenyl)piperazin-1-yl]ethyl}cyclohexyl)acetamide], for which the melting point is 146 °C. Molecule `COc1ccc(C)cc1N1CCN(CC[C@H]2CC[C@H](NC(=O)CC#N)CC2)CC1` [Example 195, 2-Cyano-N-(4-{2-[4-(2-methoxy-5-methylphenyl)piperazin-1-yl]ethyl}cyclohexyl)acetamide] returned a melting point of 178 °C. Molecule `Cc1ccc(F)cc1N1CCN(CC[C@H]2CC[C@H](NC(=O)CC#N)CC2)CC1` [Example 196, 2-Cyano-N-(4-{2-[4-(5-fluoro-2-methylphenyl)piperazin-1-yl]ethyl}cyclohexyl)acetamide] registered a melting point of 159 °C. As for `COc1ccc(C(C)(C)C)cc1N1CCN(CC[C@H]2CC[C@H](NC(=O)CC#N)CC2)CC1` [Example 197, N-(4-{2-[4-(5-tert-Butyl-2-methoxyphenyl)piperazin-1-yl]ethyl}cyclohexyl)-2-cyanoacetamide], the melting point was 163 °C. Turning to `COc1ccc(C)c(N2CCN(CC[C@H]3CC[C@H](NC(=O)CC#N)CC3)CC2)c1` [Example 198, 2-Cyano-N-(4-{2-[4-(5-methoxy-2-methylphenyl)piperazin-1-yl]ethyl}cyclohexyl)acetamide], the melting point lay in the range of 178 to 180 °C. The molecule `N#CCC(=O)N[C@H]1CC[C@H](CCN2CCC(c3cc(C(F)(F)F)cc(C(F)(F)F)c3)CC2)CC1` [Example 200, N-(4-{2-[4-(3,5-Bis-trifluoro-methylphenyl)piperidin-1-yl]ethyl}cyclohexyl)-2-cyanoacetamide] gave a melting point of 164 °C. For the molecule `CC(=O)CCCC(=O)N[C@H]1CC[C@H](CCN2CCN(c3cccc(C(F)(F)F)c3)CC2)CC1` [Example 202, 5-Oxo-hexanoic acid (4-{2-[4-(3-trifluoromethylphenyl)piperazin-1-yl]ethyl}cyclohexyl)amide], the melting point is 158 °C. The molecule `N#CCCCC(=O)N[C@H]1CC[C@H](CCN2CCN(c3ccccc3F)CC2)CC1` [Example 204, 4-Cyano-N-(4-{2-[4-(2-fluorophenyl)piperazin-1-yl]ethyl}cyclohexyl)butanamide] came in with a melting point of 170 °C. Molecule `N#CCCCC(=O)N[C@H]1CC[C@H](CCN2CCN(c3cccc(Cl)c3F)CC2)CC1` [Example 205, N-(4-{2-[4-(3-Chloro-2-fluorophenyl)piperazin-1-yl]ethyl}cyclohexyl)-4-cyanobutanamide] had a melting point of 186 °C.
